Laboratory results as given in article PMC5325384, “Novel synthetic cyclic integrin αvβ3 binding peptide ALOS4: antitumor activity in mouse melanoma models” (Oncotarget, 2016).
One block for each molecule: values may come before it. Where a SMILES comes first, the peptide text is derived from it. Bridges are numbered along the chain shown (N, C = ends). Where no end group is shown, it is not given here. The star is where a group is joined. FITC = O=C1OC2(c3ccc(O)cc3Oc3cc(O)ccc32)c2ccc(NC(=S)*)cc21; GABA = NCCCC(=O)O

Legend:
[1] = Weight of non-inoculated mice under daily treatment; assay type: in vivo, mouse; details: 16-week old C57BL/6, 0.3 mg/kg i.p. daily for 28 days; data not shown
[2] = test system: B16F10 mouse melanoma cells; assay: Immunofluorescence microscopy of cell binding and uptake; assay type: cell-based; details: 10 μM ALOS4-FITC, 37°C, confocal microscopy
Experimental: Poly-L-lysine (1 h, 37°C; cat# P8920, Sigma-Aldrich) coated slides (cat# PEZGS0816, Merck) were washed 2x with PBS (pH 7.4), 1.5×10^4 B16F10 cells per well were seeded in RPMI (10% FCS) and allowed to incubate overnight (37°C, 5% CO2). ALOS4-FITC (10 μM) was added to slide wells up to 60 min (37°C, 5% CO2), then cells were fixed in paraformaldehyde (4%, 10 min). Following PBS washes (2x) and removal of excess buffer, cells were stained with a mounting medium containing DAPI (cat# H-1500, Vector Laboratories, Burlingame, CA). Slides were imaged by confocal microscopy.

integrin αvβ3 [3] = target: T1, integrin αvβ3 (Homo sapiens, UniProt P06756); assay: fluorescence competition binding assay with ALOS4-FITC
T1 chain 1: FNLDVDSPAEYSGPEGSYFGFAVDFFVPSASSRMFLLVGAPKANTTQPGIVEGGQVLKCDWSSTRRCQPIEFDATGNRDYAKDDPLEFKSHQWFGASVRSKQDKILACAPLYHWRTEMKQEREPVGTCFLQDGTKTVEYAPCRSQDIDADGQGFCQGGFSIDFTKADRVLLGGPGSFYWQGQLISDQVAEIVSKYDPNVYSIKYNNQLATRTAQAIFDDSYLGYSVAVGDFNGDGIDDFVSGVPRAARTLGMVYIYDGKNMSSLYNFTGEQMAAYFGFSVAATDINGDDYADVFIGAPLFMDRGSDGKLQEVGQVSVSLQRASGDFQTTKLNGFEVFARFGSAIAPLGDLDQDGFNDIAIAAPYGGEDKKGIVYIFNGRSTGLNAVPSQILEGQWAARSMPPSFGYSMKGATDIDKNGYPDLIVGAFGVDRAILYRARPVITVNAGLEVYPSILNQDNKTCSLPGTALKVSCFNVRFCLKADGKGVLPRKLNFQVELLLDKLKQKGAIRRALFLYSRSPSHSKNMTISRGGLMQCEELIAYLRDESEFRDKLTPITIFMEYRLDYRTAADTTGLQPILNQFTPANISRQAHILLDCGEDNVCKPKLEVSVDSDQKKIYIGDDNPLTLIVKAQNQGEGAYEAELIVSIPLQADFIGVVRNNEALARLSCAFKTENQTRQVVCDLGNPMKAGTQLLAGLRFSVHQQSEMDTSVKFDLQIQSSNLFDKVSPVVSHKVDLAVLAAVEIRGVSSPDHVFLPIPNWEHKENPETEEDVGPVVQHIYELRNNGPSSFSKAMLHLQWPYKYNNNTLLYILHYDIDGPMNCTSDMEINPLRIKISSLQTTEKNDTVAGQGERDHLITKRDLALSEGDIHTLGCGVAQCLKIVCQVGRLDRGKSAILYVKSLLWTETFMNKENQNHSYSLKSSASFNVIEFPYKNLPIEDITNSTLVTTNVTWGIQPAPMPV
T1 chain 2: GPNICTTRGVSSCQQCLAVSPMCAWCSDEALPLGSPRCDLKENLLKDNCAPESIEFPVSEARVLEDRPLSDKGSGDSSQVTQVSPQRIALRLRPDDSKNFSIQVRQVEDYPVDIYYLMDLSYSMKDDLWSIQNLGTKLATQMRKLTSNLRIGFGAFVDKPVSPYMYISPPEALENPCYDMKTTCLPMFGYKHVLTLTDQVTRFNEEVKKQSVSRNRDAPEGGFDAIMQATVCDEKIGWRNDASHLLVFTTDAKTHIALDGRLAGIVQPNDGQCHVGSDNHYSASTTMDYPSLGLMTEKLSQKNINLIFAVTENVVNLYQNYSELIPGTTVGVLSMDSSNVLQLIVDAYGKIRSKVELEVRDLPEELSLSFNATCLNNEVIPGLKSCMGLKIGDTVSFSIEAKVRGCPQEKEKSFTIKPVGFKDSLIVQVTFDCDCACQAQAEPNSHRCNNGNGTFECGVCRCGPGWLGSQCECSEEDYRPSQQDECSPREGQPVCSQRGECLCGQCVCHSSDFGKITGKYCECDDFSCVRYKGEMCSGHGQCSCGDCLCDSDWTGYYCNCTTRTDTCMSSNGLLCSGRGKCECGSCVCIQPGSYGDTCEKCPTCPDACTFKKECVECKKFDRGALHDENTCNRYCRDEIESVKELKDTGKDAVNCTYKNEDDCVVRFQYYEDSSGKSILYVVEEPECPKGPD

integrin αvβ3 [4] = target: T1, integrin αvβ3; assay: fluorescence plate saturation binding assay

Molecule: CC(C)C[C@@H]1NC(=O)[C@H](CO)NC(=O)CNC(=O)[C@H](C)NC(=O)[C@H](CO)NC(=O)[C@H](CO)NC(=O)[C@@H](NC(=O)CCCNC(=S)Nc2ccc3c(c2)C(=O)OC32c3ccc(O)cc3Oc3cc(O)ccc32)CSSC[C@@H](C(=O)O)NC(=O)[C@H](Cc2ccccc2)NC1=O [ALOS4-FITC] ({FITC-GABA}-CSSAGSLFC-OH; disulfide 1-9)
association with cells, 10 min ([2]; 10 min): rapidly adheres to the cell surface
translocation into cells, 30 min ([2]; 30 min): appears to translocate quickly to the cell cytoplasm
intracellular localization, 60 min ([2]; up to 60 min): a majority of ALOS4-FITC migrated to the nuclear envelope and/or surrounding endoplasmic reticular membranes

Molecule: CSSAGSLFC (disulfide 1-9 (inferred)) [ALOS4]
Kd (integrin αvβ3 [3]): 2550 nM

Other lines, results leading:

effect on animal weight, non-inoculated mice [1]: did not have any effect on animal weight
Molecule: CC(C)C[C@@H]1NC(=O)[C@H](CO)NC(=O)CNC(=O)[C@H](C)NC(=O)[C@H](CO)NC(=O)[C@H](CO)NC(=O)[C@@H](N)CSSC[C@@H](C(=O)O)NC(=O)[C@H](Cc2ccccc2)NC1=O [ALOS4] (H-CSSAGSLFC-OH; disulfide 1-9)

Kd (integrin αvβ3 [4]): 192 nM
Molecule: {FITC-ε‑Acp}-CSSAGSLFC (disulfide 1-9 (inferred)) [ALOS4-FITC]
